Key:
FPPS [1] = target: T1, FPPS (Homo sapiens, UniProt P14324)
Target sequence in this assay (P14324 72-419): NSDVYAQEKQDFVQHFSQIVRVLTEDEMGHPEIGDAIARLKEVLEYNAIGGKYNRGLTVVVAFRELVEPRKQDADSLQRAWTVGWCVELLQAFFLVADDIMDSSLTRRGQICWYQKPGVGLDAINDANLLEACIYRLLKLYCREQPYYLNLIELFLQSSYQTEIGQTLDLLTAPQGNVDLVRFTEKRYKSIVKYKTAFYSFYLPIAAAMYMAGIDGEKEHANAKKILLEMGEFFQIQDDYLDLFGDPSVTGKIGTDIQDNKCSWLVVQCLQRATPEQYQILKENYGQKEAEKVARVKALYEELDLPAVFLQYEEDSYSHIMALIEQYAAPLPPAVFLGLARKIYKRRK

FPPS [2] = target: T1, FPPS; conditions: with respect to allylic substrates and IPP; cited from earlier work
Target sequence in this assay (P14324 whole entry): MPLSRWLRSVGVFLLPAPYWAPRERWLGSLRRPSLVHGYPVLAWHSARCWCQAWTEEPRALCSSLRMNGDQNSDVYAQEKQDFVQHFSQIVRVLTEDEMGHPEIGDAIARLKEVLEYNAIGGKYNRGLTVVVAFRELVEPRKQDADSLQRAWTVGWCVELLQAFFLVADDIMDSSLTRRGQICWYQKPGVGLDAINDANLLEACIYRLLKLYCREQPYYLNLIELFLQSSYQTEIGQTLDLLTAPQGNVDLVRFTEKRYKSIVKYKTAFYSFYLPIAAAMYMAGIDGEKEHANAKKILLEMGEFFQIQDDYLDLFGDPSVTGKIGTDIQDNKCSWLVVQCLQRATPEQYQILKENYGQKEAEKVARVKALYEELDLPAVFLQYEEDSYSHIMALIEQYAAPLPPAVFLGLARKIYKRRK

C=C(C)CCOP(=O)(O)OP(=O)(O)O [IPP, isopentenyl diphosphate]
binding in the presence of zoledronate/Mg2+ (NMR) (FPPS [1]; IPP 400 μM added to FPPS/zoledronate/Mg2+ sample): binds to FPPS even in the presence of zoledronate

NCCCC(O)(P(=O)(O)O)P(=O)(O)O [alendronate]
mode of FPPS inhibition (FPPS [2]): competitive with respect to allylic substrates but not IPP

NCCC(O)(P(=O)(O)O)P(=O)(O)O [pamidronate]
chemical shift changes in 15N,1H-TROSY spectrum upon ligand addition (FPPS [1]; FPPS dimer 60 μM, pamidronate 270 μM, Mg2+ 900 μM): almost all of the non-overlapping resonances experience chemical shift changes
